The source of these data is PubChem BioAssay AID256 (DTP/NCI, 2004).

This experiment relates to CD2F1 mice, L1210 leukemia ip, survival T/C. The experiment is described as follows: NCI In Vivo Anticancer Drug Screen. Data for tumor model L1210 Leukemia (intraperitoneal) in CD2F1 (CDF1) mice. To be noted: higher = longer survival. In a few lines:
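Read-out first: treated-group measurement over vehicle-control measurement, expressed as a ratio. Animals bore a transplanted tumor line and were dosed with compound or vehicle.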

[1] abbreviates: endpoint: mean survival time, dose: 12.5 mg/kg/injection, schedule: Q01DX009 (ip), vehicle: saline with Tween-80.
The mark [2] stands for this setting: endpoint: mean survival time, dose: 25.0 mg/kg/injection, schedule: Q01DX009 (ip), vehicle: saline with Tween-80.
Setting [3] is: endpoint: mean survival time, dose: 100.0 mg/kg/injection, schedule: Q04DX002 (ip), vehicle: saline with Tween-80.
[4] abbreviates: endpoint: mean survival time, dose: 100.0 mg/kg/injection, schedule: Q04DX003 (ip), vehicle: saline with Tween-80.
Setting [5] is: endpoint: mean survival time, dose: 200.0 mg/kg/injection, schedule: Q04DX002 (ip), vehicle: saline with Tween-80.
The mark [6] stands for this setting: endpoint: mean survival time, dose: 400.0 mg/kg/injection, schedule: Q04DX003 (ip), vehicle: saline with Tween-80.
The mark [7] stands for this setting: endpoint: mean survival time, dose: 200.0 mg/kg/injection, schedule: Q04DX003 (ip), vehicle: saline with Tween-80.
[8] abbreviates: endpoint: mean survival time, dose: 400.0 mg/kg/injection, schedule: Q04DX002 (ip), vehicle: saline with Tween-80.
[9] abbreviates: endpoint: median survival time, dose: 200.0 mg/kg/injection, schedule: Q01DX005 (ip), vehicle: saline with Tween-80.

Each structure is given as a SMILES string. Where “and” joins values, the source holds several entries; their conditions need not be identical. Identical values can stand only once. Toxic doses and inconclusive results are not listed.

Consider `NC(=S)N/N=C/c1ccc(OC(=O)COc2ccccc2Cl)cn1`, for which the T/C is, setting by setting: under setting [1], 120 % of control; under setting [2], 122 % of control; (endpoint: mean survival time, dose: 50.0 mg/kg/injection, schedule: Q01DX001 (ip), vehicle: saline with Tween-80) 101 % of control; (endpoint: mean survival time, dose: 50.0 mg/kg/injection, schedule: Q04DX003 (ip), vehicle: saline with Tween-80) 116 % of control and 118 % of control; (endpoint: mean survival time, dose: 100.0 mg/kg/injection, schedule: Q01DX001 (ip), vehicle: saline with Tween-80) 108 % of control; (endpoint: mean survival time, dose: 100.0 mg/kg/injection, schedule: Q01DX009 (ip), vehicle: saline with Tween-80) 159 % of control. The T/C by setting is: under setting [3], 103 % of control and 106 % of control; under setting [4], 124 % of control; (endpoint: mean survival time, dose: 200.0 mg/kg/injection, schedule: Q01DX001 (ip), vehicle: saline with Tween-80) 113 % of control; (endpoint: mean survival time, dose: 200.0 mg/kg/injection, schedule: Q01DX009 (ip), vehicle: saline with Tween-80) 155 % of control; under setting [5], 118 % of control and 107 % of control; under setting [6], 152 % of control and 163 % of control.

As for `O=C(O)c1cccc2c1C(=O)c1ccccc1C2=O`, the T/C reads like this: (endpoint: mean survival time, dose: 100.0 mg/kg/injection, schedule: Q04DX003 (ip), vehicle: Klucel (hydroxypropylcellulose) (HPC)) 117 % of control; (endpoint: mean survival time, dose: 200.0 mg/kg/injection, schedule: Q04DX003 (ip), vehicle: Klucel (hydroxypropylcellulose) (HPC)) 101 % of control; (endpoint: mean survival time, dose: 400.0 mg/kg/injection, schedule: Q04DX003 (ip), vehicle: Klucel (hydroxypropylcellulose) (HPC)) 109 % of control.

For `N/C(=N\N=C(c1ccccc1)c1ccccc1)N[N+](=O)[O-]`, the T/C was 97 % of control under setting [4], 100 % of control under setting [7] and 103 % of control under setting [6].

On to `C[Si](C)(C)Oc1ccc(OCc2ccccc2)cc1`, for which the T/C (endpoint: mean survival time, dose: 50.0 mg/kg/injection, schedule: Q04DX002 (ip), vehicle: saline with Tween-80) is 87 % of control; the T/C under setting [3] is 87 % of control; the T/C under setting [5] is 95 % of control; the T/C under setting [8] was 95 % of control.

For `CCCCC(OC(=O)c1ccc([N+](=O)[O-])cc1)C(C)[N+](=O)[O-]` (configuration not stated), the T/C by setting is: under setting [4], 104 % of control; under setting [7], 97 % of control; under setting [6], 104 % of control.

On to `CCSC(CC(OC(C)=O)C(OC(C)=O)C(COC(C)=O)OC(C)=O)n1cnc2c(Cl)ncnc21` (configuration not stated), for which the T/C was 98 % of control (endpoint: mean survival time, dose: 12.5 mg/kg/injection, schedule: Q01DX005 (ip), vehicle: other); 96 % of control (endpoint: mean survival time, dose: 25.0 mg/kg/injection, schedule: Q01DX005 (ip), vehicle: other); 95 % of control (endpoint: mean survival time, dose: 50.0 mg/kg/injection, schedule: Q01DX005 (ip), vehicle: other); 104 % of control (endpoint: mean survival time, dose: 100.0 mg/kg/injection, schedule: Q01DX005 (ip), vehicle: other); 105 % of control (endpoint: mean survival time, dose: 200.0 mg/kg/injection, schedule: Q01DX005 (ip), vehicle: other).

As to `c1csc(C[N+]23CN4CN(CN(C4)C2)C3)c1`, the T/C (endpoint: median survival time, dose: 12.5 mg/kg/injection, schedule: Q01DX009 (ip), vehicle: saline) was 103 % of control; the T/C (endpoint: median survival time, dose: 25.0 mg/kg/injection, schedule: Q01DX009 (ip), vehicle: saline) was 107 % of control; the T/C (endpoint: median survival time, dose: 50.0 mg/kg/injection, schedule: Q01DX009 (ip), vehicle: saline) was 107 % of control; the T/C (endpoint: median survival time, dose: 100.0 mg/kg/injection, schedule: Q01DX009 (ip), vehicle: saline) is 108 % of control; the T/C (endpoint: median survival time, dose: 200.0 mg/kg/injection, schedule: Q01DX009 (ip), vehicle: saline) was 101 % of control; the T/C (endpoint: median survival time, dose: 400.0 mg/kg/injection, schedule: Q01DX009 (ip), vehicle: saline) is 109 % of control.

On to `O=C(CO)C(OC1OC(CO)C(O)C(O)C1O)C(O)C(O)CO` (configuration not stated), for which the T/C runs as follows: (endpoint: mean survival time, dose: 100.0 mg/kg/injection, schedule: Q01DX001 (ip), vehicle: saline) 103 % of control; (endpoint: mean survival time, dose: 200.0 mg/kg/injection, schedule: Q01DX001 (ip), vehicle: saline) 97 % of control; (endpoint: mean survival time, dose: 400.0 mg/kg/injection, schedule: Q01DX001 (ip), vehicle: saline) 100 % of control.

For `CCCC1C(=O)N=C(N)NC1=O` (configuration not stated), the T/C reads like this: (endpoint: mean survival time, dose: 100.0 mg/kg/injection, schedule: Q01DX001 (ip), vehicle: Klucel (hydroxypropylcellulose) (HPC)) 97 % of control; (endpoint: mean survival time, dose: 200.0 mg/kg/injection, schedule: Q01DX001 (ip), vehicle: Klucel (hydroxypropylcellulose) (HPC)) 104 % of control; (endpoint: mean survival time, dose: 400.0 mg/kg/injection, schedule: Q01DX001 (ip), vehicle: Klucel (hydroxypropylcellulose) (HPC)) 101 % of control.

On to `CC(=O)OCC1OC(OC(C)=O)C(NC(=S)N(C)N=O)C(OC(C)=O)C1OC(C)=O` (configuration not stated), for which the T/C was 106 % of control (endpoint: mean survival time, dose: 12.5 mg/kg/injection, schedule: Q04DX002 (ip), vehicle: distilled water + Tween-80); 103 % of control (endpoint: mean survival time, dose: 25.0 mg/kg/injection, schedule: Q04DX002 (ip), vehicle: distilled water + Tween-80); 113 % of control (endpoint: mean survival time, dose: 50.0 mg/kg/injection, schedule: Q04DX002 (ip), vehicle: distilled water + Tween-80); 118 % of control and 120 % of control (endpoint: mean survival time, dose: 100.0 mg/kg/injection, schedule: Q04DX002 (ip), vehicle: distilled water + Tween-80).

`N#CSCc1ccc(Cl)cc1`: the T/C was 98 % of control (endpoint: mean survival time, dose: 6.25 mg/kg/injection, schedule: Q01DX009 (ip), vehicle: saline with Tween-80); 96 % of control under setting [1]; 106 % of control under setting [2].

Regarding `CCc1ccc(C(=O)CCC(=O)O)cc1`, the T/C reads like this: under setting [3], 98 % of control; under setting [5], 95 % of control; under setting [8], 102 % of control.

For the molecule `C=CC1CN2CCC1CC2C(O)c1ccnc2ccc(OC)cc12` (configuration not stated), the T/C is, setting by setting: (endpoint: mean survival time, dose: 18.75 mg/kg/injection, schedule: Q01DX009 (ip), vehicle: saline with Tween-80) 105 % of control; (endpoint: mean survival time, dose: 37.5 mg/kg/injection, schedule: Q01DX009 (ip), vehicle: saline with Tween-80) 101 % of control; (endpoint: mean survival time, dose: 75.0 mg/kg/injection, schedule: Q01DX009 (ip), vehicle: saline with Tween-80) 103 % of control.

`CSc1nc(NC2OCC(O)C(O)C2O)c(C(C)=O)c(=O)n1C` (configuration not stated): the T/C is 97 % of control (endpoint: median survival time, dose: 12.5 mg/kg/injection, schedule: Q01DX005 (ip), vehicle: saline with Tween-80); 98 % of control (endpoint: median survival time, dose: 25.0 mg/kg/injection, schedule: Q01DX005 (ip), vehicle: saline with Tween-80); 96 % of control (endpoint: median survival time, dose: 50.0 mg/kg/injection, schedule: Q01DX005 (ip), vehicle: saline with Tween-80); 89 % of control (endpoint: median survival time, dose: 100.0 mg/kg/injection, schedule: Q01DX005 (ip), vehicle: saline with Tween-80); 94 % of control under setting [9].

Turning to `CCOC1NC(=O)Oc2ccccc21` (configuration not stated), the T/C (endpoint: median survival time, dose: 50.0 mg/kg/injection, schedule: Q01DX005 (ip), vehicle: Klucel (hydroxypropylcellulose) (HPC)) was 100 % of control; the T/C (endpoint: median survival time, dose: 100.0 mg/kg/injection, schedule: Q01DX005 (ip), vehicle: Klucel (hydroxypropylcellulose) (HPC)) was 95 % of control; the T/C (endpoint: median survival time, dose: 200.0 mg/kg/injection, schedule: Q01DX005 (ip), vehicle: Klucel (hydroxypropylcellulose) (HPC)) is 108 % of control.

Take `O/N=C(/Cl)c1ccccn1`: the T/C by setting is: (endpoint: mean survival time, dose: 1.88 mg/kg/injection, schedule: Q04DX003 (ip), vehicle: saline) 102 % of control; (endpoint: mean survival time, dose: 3.75 mg/kg/injection, schedule: Q04DX003 (ip), vehicle: saline) 94 % of control; (endpoint: mean survival time, dose: 7.5 mg/kg/injection, schedule: Q01DX001 (ip), vehicle: saline) 101 % of control; (endpoint: mean survival time, dose: 7.5 mg/kg/injection, schedule: Q04DX003 (ip), vehicle: saline) 94 % of control.

As for `COc1cc(C(CC(C)=O)c2cc3c(cc2OC(C)=O)OCO3)cc(OC)c1OC` (configuration not stated) (tested in a mixture with another compound), the T/C was 103 % of control (endpoint: median survival time, dose: 15.0 mg/kg/injection, schedule: Q01DX005 (ip), vehicle: saline with Tween-80); 101 % of control (endpoint: median survival time, dose: 30.0 mg/kg/injection, schedule: Q01DX005 (ip), vehicle: saline with Tween-80); 105 % of control (endpoint: median survival time, dose: 43.2 mg/kg/injection, schedule: Q01DX005 (ip), vehicle: saline with Tween-80); 114 % of control (endpoint: median survival time, dose: 60.0 mg/kg/injection, schedule: Q01DX005 (ip), vehicle: saline with Tween-80); 113 % of control and 110 % of control (endpoint: median survival time, dose: 72.0 mg/kg/injection, schedule: Q01DX005 (ip), vehicle: saline with Tween-80); 162 % of control and 168 % of control under setting [9]. For the same molecule, the T/C (endpoint: median survival time, dose: 240.0 mg/kg/injection, schedule: Q01DX005 (ip), vehicle: saline with Tween-80) is 103 % of control.

Take `CCC(C)(S(=O)(=O)CC)S(=O)(=O)CC`: the T/C by setting is: under setting [4], 102 % of control; under setting [7], 98 % of control; under setting [6], 98 % of control.
